Results on 28 molecules are retold here after US8268885B2, “Entry inhibitors of the HIV virus” (priority 2003, dated 2012).

Holding throughout (type): cell-based
One data set relates to HIV. Kind of data set: anti-viral replication assay using MT4-LTR-EGFP cells. To be noted: Human immunodeficiency virus 1, read-out: antiviral EC50. The method, then: (§1) The compounds were tested in the anti-viral replication assay using the MT4-LTR-EGFP cells and in the ERA assay. Toxicity was measured using MT4-CMV-EGFP cells.
Data set [1] can be described thus: toxicity assay using MT4-CMV-EGFP cells (reduced expression of GFP reporter). The note with it: human. The method, then:
A toxicity assay wherein a reduced expression of the GFP reporter protein (Mt4-CMV-EGFP cells) serves as a marker for cellular toxicity of a test compound can be used to measure the toxicity of the present compounds.
as §1

Data set [2] deals with cell-cell fusion between cell line persistently expressing HIV and a cell line expressing CD4 and CXCR4. Nature of the data set: entry reporter assay (ERA): inhibition of cell-cell fusion, FACS read-out. To be noted: for EC50: Human immunodeficiency virus 1, read-out: ERA assay EC50; for ERA assay % inh: cell-cell fusion, concentration not given. The method, then: as §1
On the technique in general: A reporter such as luciferase makes a cellular process visible.

A word on the EC50: it is the concentration at which the effect is half-maximal. The CC50 is the concentration giving 50% cytotoxicity. Read a low CC50 as harm at low concentration.

Regarding `O=C(Cc1ccccc1)Nc1ccc(Oc2ccc(NC(=O)Cc3ccccc3)cc2)cc1` [Compound 10], the EC50 with HIV is more than 32 µM. The molecule further had a CC50 in data set [1] of more than 32 µM. In data set [2], the EC50 was more than 100 µM and the “ERA assay % inh” value stood at 48%.

In the case of `O=C(COCc1ccccc1)NCc1cccc(Oc2ccc(NC(=O)COCc3ccccc3)cc2)c1` [Compound 43], the EC50 in the data set with HIV came out at 11.8 µM. The molecule further displayed a CC50 in data set [1] of more than 32 µM. For the same molecule, in data set [2], the EC50 amounted to 83.6 µM and the “ERA assay % inh” value was determined as 54%.

On to `COc1ccc(S(=O)(=O)Nc2ccc(Oc3ccc(NC(=O)COC(C)=O)cc3)cc2)cc1` [Compound 1, acetic acid {4-[4-(4-methoxy-benzenesulfonylamino)-phenoxy]-phenylcarbamoyl}-methyl ester], for which the EC50 with HIV came out at 1.69 µM. Besides, in data set [1], the CC50 was more than 27.7 µM. Moreover, in data set [2], the EC50 was determined as 92 µM and the “ERA assay % inh” value came to 89%.

Take `O=C(Nc1ccc(Oc2cccc3cnccc23)cc1)c1ccc([N+](=O)[O-])cc1` [Compound 4]: the results for the half-maximal effective concentration (EC50) (in the data set with HIV; in data set [2]) were 5.34 µM and more than 200 µM, respectively. In data set [1], this molecule gave a CC50 of more than 100 µM. Besides, in data set [2], the “ERA assay % inh” value is 30%.

With `O=C(CNCCN1CCCC1)Nc1ccc(Oc2cccc3c2N(C(=O)CNCCN2CCCC2)CCC3)cc1` [Compound 7], the EC50 in the data set with HIV turned out to be 57.7 µM. Besides, the CC50 in data set [1] was more than 100 µM. In addition, in data set [2], the EC50 is more than 200 µM and the “ERA assay % inh” value turned out to be 29%.

Regarding `COc1ccc(S(=O)(=O)Nc2ccc(Oc3ccc(NC(=O)Cc4ccccc4)cc3)cc2)cc1` [Compound 39], the EC50 in the data set with HIV was determined as 1.56 µM. This molecule also gave a CC50 in data set [1] of more than 100 µM. For the same molecule, in data set [2], the EC50 is more than 100 µM and the “ERA assay % inh” value stood at 45%.

As to `O=C(COc1ccccc1)Nc1ccc(Oc2ccc(NC(=O)c3ccco3)cc2)cc1` [Compound 34], the concentration for a half-maximal effect (EC50) with HIV turned out to be 1.24 µM. In addition, in data set [1], the CC50 was 83.2 µM. For the same molecule, in data set [2], the EC50 is more than 200 µM and the “ERA assay % inh” value came to 41%.

With `O=C(COc1ccccc1)Nc1ccc(Oc2ccc(NC(=O)c3ccc4c(c3)OCO4)cc2)cc1` [Compound 32], the concentration for a half-maximal effect (EC50) in the data set with HIV is 4.17 µM. The CC50 in data set [1] was determined as 19.9 µM. Moreover, in data set [2], the EC50 was more than 200 µM and the “ERA assay % inh” value was found to be 29%.

Regarding `COc1ccc(S(=O)(=O)Nc2ccc(Oc3ccc(NC(=O)c4cccc(OC)c4)cc3)cc2)cc1` [Compound 36], in the data set on HIV, the half-maximal effective concentration (EC50) was 1.05 µM. In data set [1], this molecule came in with a CC50 of 5.87 µM. In data set [2], the EC50 is more than 200 µM and the “ERA assay % inh” value is on record as 9%.

With `O=C(COc1ccccc1)Nc1ccc(Oc2cccc3c2N(C(=O)COc2ccccc2)CCC3)cc1` [Compound 20], the EC50 was 3.25 µM with HIV and more than 100 µM in data set [2]. The CC50 in data set [1] was more than 32 µM. Also, the “ERA assay % inh” value in data set [2] was 39%.

Regarding `O=C(COc1ccccc1)Nc1ccc(Oc2ccc(NC(=O)Cc3ccccc3)cc2)cc1` [Compound 33], the EC50 with HIV turned out to be 5.01 µM. Further, in data set [1], the CC50 came out at 30.2 µM. In data set [2], the EC50 is 196 µM and the “ERA assay % inh” value is listed as 52%.

Regarding `O=C(O)c1ccc(S(=O)(=O)Nc2ccc(Oc3cccc4cnccc34)cc2)cc1` [Compound 6], in the data set with HIV, the EC50 was determined as 18.6 µM. In data set [1], this molecule came in with a CC50 of more than 100 µM. In data set [2], the EC50 stood at 182 µM and the “ERA assay % inh” value is listed as 52%.

Regarding `N#Cc1ccc(C(=O)Nc2ccc(Oc3cccc4cnccc34)cc2)cc1` [Compound 5], the EC50 in the data set with HIV amounted to 3.29 µM. In data set [1], this molecule displayed a CC50 of more than 100 µM.

As to `COc1ccc(S(=O)(=O)Nc2ccc(Oc3ccc(NC(=O)c4cccc([N+](=O)[O-])c4)cc3)cc2)cc1` [Compound 37], the EC50 in the data set on HIV turned out to be 3.92 µM. For the same molecule, in data set [1], the CC50 was more than 32 µM.

For `O=C(CN[C@@H](Cc1ccccc1)C(=O)O)Nc1ccc(Oc2cccc(C(=O)O)c2)cc1C(F)(F)F` [Compound 8], the EC50 in the data set with HIV was more than 100 µM; in data set [2] it was more than 200 µM. This molecule displayed a CC50 in data set [1] of more than 100 µM. Moreover, the “ERA assay % inh” value in data set [2] is on record as 3%.

Consider `CCCCc1ccc(C(=O)NCc2cccc(Oc3ccc(NC(=O)c4ccc(CCCC)cc4)cc3)c2)cc1` [Compound 44], for which the EC50 with HIV came out at 2 µM. This molecule also registered a CC50 in data set [1] of more than 32 µM. Also, in data set [2], the EC50 was more than 200 µM and the “ERA assay % inh” value is 22%.

With `O=C(COc1ccccc1)Nc1ccc(Oc2ccc(NC(=O)c3cccc([N+](=O)[O-])c3)cc2)cc1` [Compound 31], the EC50 with HIV was found to be 0.43 µM. Moreover, in data set [1], the CC50 turned out to be 3.41 µM. In data set [2], the EC50 is more than 100 µM and the “ERA assay % inh” value stood at 13%.

Regarding `COc1cccc(C(=O)Nc2ccc(Oc3ccc(NC(=O)COc4ccccc4)cc3)cc2)c1` [Compound 30], the EC50 in the data set on HIV was 0.37 µM. Moreover, in data set [1], the CC50 was found to be 3.85 µM.

Regarding `CC(=O)OCC(=O)Nc1ccc(Oc2ccc(NC(=O)COc3ccccc3)cc2)cc1` [Compound 35], the EC50 with HIV was found to be 3.28 µM. Half-maximal cytotoxicity in data set [1] (CC50) was put at 23.6 µM. In addition, in data set [2], the EC50 amounted to 150 µM and the “ERA assay % inh” value turned out to be 55%.

In the case of `O=C(COc1ccccc1)Nc1ccc(Oc2ccc([N+](=O)[O-])cc2)cc1` [Compound 24], the EC50 in the data set on HIV was 19.5 µM. The molecule also returned a CC50 in data set [1] of more than 100 µM. For the same molecule, in data set [2], the EC50 was 78.4 µM and the “ERA assay % inh” value turned out to be 68%.

As for `COc1cccc(C(=O)Nc2ccc(Oc3ccc(NC(=O)c4cccc(OC)c4)cc3)cc2)c1` [Compound 11], the EC50 in the data set on HIV was more than 32 µM. Besides, the CC50 in data set [1] was more than 32 µM. Further, in data set [2], the EC50 was 68.9 µM and the “ERA assay % inh” value was 64%.

As to `O=C(Nc1ccc(Oc2ccc(NC(=O)c3cccc([N+](=O)[O-])c3)cc2)cc1)c1cccc([N+](=O)[O-])c1` [Compound 12], the EC50 with HIV amounted to 41.3 µM. In addition, in data set [1], it took 54.2 µM to reach half-maximal cytotoxicity (CC50). In data set [2], the EC50 is more than 200 µM and the “ERA assay % inh” value is listed as 17%.

Consider `COc1ccc(S(=O)(=O)Nc2ccc(Oc3ccc([N+](=O)[O-])cc3)cc2)cc1` [Compound 29], for which the EC50 in the data set with HIV was 1.18 µM. For the same molecule, the CC50 in data set [1] worked out at 61.6 µM. In addition, in data set [2], the EC50 is 177 µM and the “ERA assay % inh” value came to 59%.

On to `O=C(COc1ccccc1)NCc1cccc(Oc2ccc(NC(=O)COc3ccccc3)cc2)c1` [Compound 42], for which, in the data set with HIV, the EC50 is 3.77 µM. Further, the midpoint of cytotoxicity in data set [1], the CC50, lay at 46.5 µM. In data set [2], the EC50 is more than 200 µM and the “ERA assay % inh” value was 37%.

As for `CN1CCN(CC(=O)Nc2ccc(Oc3ccc(NC(=O)CN4CCN(C)CC4)cc3)cc2)CC1` [Compound 16], the EC50 with HIV was 55 µM. Also, the CC50 in data set [1] was more than 100 µM. In data set [2], the EC50 was more than 200 µM and the “ERA assay % inh” value is 42%.

With `O=C(Nc1ccc(Oc2cccc3c2N(C(=O)c2ccco2)CCC3)cc1)c1ccco1` [Compound 23, Furan-2-carboxylic acid {4-[1-(furan-2-carbonyl)-1,2,3,4-tetrahydro-quinolin-8-yloxy]-phenyl}-amide], the concentration giving a half-maximal response (EC50) is 11.2 µM in the data set with HIV and 123 µM in data set [2]. Besides, it took 34.2 µM to reach half-maximal cytotoxicity in data set [1] (CC50). Also, the “ERA assay % inh” value in data set [2] is on record as 92%.

For `COc1ccc(S(=O)(=O)Nc2ccc(Oc3ccc(NC(=O)c4ccco4)cc3)cc2)cc1` [Compound 40], the EC50 in the data set on HIV was found to be 0.15 µM. Also, in data set [1], half-maximal cytotoxicity (CC50) was put at 22.4 µM. Moreover, in data set [2], the EC50 is 40.9 µM and the “ERA assay % inh” value is given as 79%.

In the case of `CCCCc1ccc(C(=O)Nc2ccc(Oc3cccc4c3N(C(=O)c3ccc(CCCC)cc3)CCC4)cc2)cc1` [Compound 21], the EC50 in the data set with HIV was more than 34 µM. For the same molecule, in data set [1], the CC50 was more than 100 µM. In data set [2], the EC50 was more than 200 µM and the “ERA assay % inh” value worked out at 9%.
